{"source": "patent US11883525B2", "about": "“Bioerodible polyester polymer axitinib ocular implants and related methods of use” (Dose Medical Corporation, priority 2019, dated 2024)", "tested_on": "persistent retinal vascular leakage", "assay": "DL-AAA model of persistent retinal vascular leakage, fluorescein angiography", "assay_type": "in vivo, DB rabbits", "conditions": "2-mg injection", "data": [{"substance": "Eylea® (aflibercept): commercial aflibercept product, macromolecular ligand for VEGF, used to validate the model", "values": [{"measurement": "duration of effect on leakage", "value": "approximately two"}]}]}
